{"source": "patent US20220125764A1", "about": "“PHARMACEUTICAL COMPOSITION COMPRISING BENZIMIDAZOLE DERIVATIVE COMPOUND” (HK INNO.N CORPORATION, priority 2019, published 2022)", "key": {"gastric pH": {"test_system": "gastric pH", "experiment": "24-hour gastric pH monitoring after repeated oral dosing in healthy male volunteers (Example 1)", "type": "in vivo, human", "conditions": "for HTR > pH4 (%) Mean: time for which pH of gastric fluid exceeds and maintains 4 based on 24 hours: healthy male volunteers", "method": "Tegoprazan and esomeprazole were orally administered for 7 days as shown in table 1 (an open-label, active controlled, parallel design and repeated dose).\nThere occurred neither serious adverse reactions nor dropouts caused thereby while this clinical trial was in progress. With regard to a gastric pH, a time for which the gastric pH exceeds 4 was evaluated during an observation period for the gastric pH.\nAfter evaluating pharmacokinetic parameters, the time (%) for which a pH of gastric fluid exceeds and maintains 4 based on 24 hours is the same as shown in the following table 2."}, "[1]": {"test_system": "erosive gastroesophageal reflux disease", "experiment": "Double-blinded, randomized, active-controlled maintenance therapy trial in subjects with treated erosive gastroesophageal reflux disease (Example 2)", "type": "in vivo, human", "conditions": "for subjects with erosion observed by upper gastrointestinal endoscopy: test group (tegoprazan 25 mg, at least 17 subjects) and control group (lansoprazole 15 mg) pooled, total 37 subjects; for symptom evaluation: symptoms of heartburn and gastric acid reflux while taking the drug: all the subjects of the group, once a day for four weeks, tegoprazan 25 mg, lansoprazole 15 mg", "method": "A double-blinded, randomized and active controlled study was designed to identify an effect of 25 mg of tegoprazan on maintenance therapy for gastroesophageal reflux disease.\n(2) a person who is diagnosed with erosive gastroesophageal reflux disease (LA grade A-D) through upper gastrointestinal endoscopy within 12 weeks based on random group allocation (visit 2);\n(3) a person who is identified as having erosive gastroesophageal reflux disease treated through upper gastrointestinal endoscopy within seven days based on random group allocation (visit 2) (a person who is identified the cure of erosion after administration of a standard dose of therapeutic agents for erosive gastroesophageal reflux disease (PPI, P-CAB, etc.) for 4-8 weeks due to a typical symptom of gastroesophageal reflux disease and erosive gastroesophageal reflux disease);\nThe clinical trial was performed in a double-blinded, randomized, active-controlled and multi-center clinical trial manner, and the clinical trial may be schematized as shown in FIG. 1.\nThe subjects were classified using stratified block randomization based on LA grades identified by upper gastrointestinal endoscopy performed within 12 weeks before the random allocation on visit (visit 2). Each group was administered with the drug for 24 weeks.\nAs identified in the table above, the test group was orally dosed with 25 mg of tegoprazan tablet (Preparation Example 1)/lansoprazole 15 mg placebo (Preparation Example 4), and the control group was orally dosed with 25 mg of tegoprazan placebo (Preparation Example 2)/lansoprazole 15 mg capsule (Preparation Example 3).\nThe subjects randomly allocated to each group took the prescribed clinical trial drug once a day at a regular time from the first day of prescription. A diary on the trial subjects was kept from the start day of taking the clinical trial drug.\nDuring a visit in 4 weeks (visit 3), 12 weeks (visit 4) and 24 weeks (visit 5) later, subjects paid a visit on an empty stomach without taking the clinical trial drug, then received a scheduled test, then were newly prescribed the same drug, then took it from the very day, then received a test in their visit in 24 weeks (visit 5) later, and then stopped the administration.\nIn four weeks (visit 3) after administering the clinical trial drug, endoscopy was not performed, but clinical laboratory tests (hematologic test, blood chemistry test, blood coagulation test, urine test, hepatitis test, etc.) and evaluation of symptoms were performed. In 12 weeks (visit 4) and 24 weeks (visit 5) later, it was checked whether erosion recurred or not through the upper gastrointestinal endoscopy, and the clinical laboratory test, evaluation of symptoms and the like were performed. Clinical trial subjects took the clinical trial drug for up to 24 weeks and then entered into a safety follow-up (f/u) period, in which the f/u was performed (by phone or visit) in two weeks after the last administration.\n(1) Endoscopic remission: No recurrence of erosion (LA grade A-D) observed through upper gastrointestinal endoscopy during a maintenance period (12 weeks)\n(1) Rate of subjects without main symptoms (heartburn and gastric acid reflux)\nRate of subjects without main symptoms=(Subjects without main symptoms expressed/Number of clinical trial subjects whose symptoms were evaluated during a maintenance period after administration of the clinical trial drug)×100"}}, "data": [{"compound": "Cc1nc2cc(C(=O)N(C)C)cc(O[C@H]3CCOc4cc(F)cc(F)c43)c2[nH]1", "note": "[tegoprazan, (S)-4-(5,7-difluorochroman-4-yloxy)-N,N,2-trimethyl-1H-benzo[d]imidazole-6-carboxamide]", "values": [{"measurement": "HTR > pH4 (%) Mean: time for which pH of gastric fluid exceeds and maintains 4 based on 24 hours", "setting": "gastric pH; Day 1, 25 mg once a day orally", "value": 40.6, "unit": "%"}, {"measurement": "HTR > pH4 (%) Mean: time for which pH of gastric fluid exceeds and maintains 4 based on 24 hours", "setting": "gastric pH; Day 7, 25 mg once a day orally for seven days", "value": 56.6, "unit": "%"}, {"measurement": "average of time for which the gastric pH exceeds 4 (Time pH>4, %)", "setting": "gastric pH; from day 1 after the administration, 25 mg, observed for 24 hours", "value": "at least 40%"}, {"measurement": "maintenance effect after four weeks of administration", "setting": "[1]; 25 mg once a day, 4 weeks", "value": "demonstrated a maintenance effect"}, {"measurement": "maintenance effect (endoscopic remission maintenance) after twelve weeks of administration", "setting": "[1]; 25 mg once a day, 12 weeks", "value": "A maintenance effect was observed"}, {"measurement": "inhibition of the recurrence of gastroesophageal reflux disease", "setting": "[1]; 25 mg, conclusion from 12-week endoscopy", "value": "effectively inhibits the recurrence of gastroesophageal reflux disease"}, {"measurement": "subjects with erosion observed by upper gastrointestinal endoscopy", "setting": "[1]; 12 weeks", "value": "only one subject among the total 37 subjects"}, {"measurement": "symptom evaluation: symptoms of heartburn and gastric acid reflux while taking the drug", "setting": "[1]", "value": "had not experienced symptoms of heartburn and gastric acid reflux"}]}, {"compound": "Cc1c(OCC(F)(F)F)ccnc1C[S+]([O-])c1nc2ccccc2[nH]1", "note": "(stereo not shown) [lansoprazole, reference compound]", "values": [{"measurement": "subjects with erosion observed by upper gastrointestinal endoscopy", "setting": "[1]; 12 weeks", "value": "only one subject among the total 37 subjects"}, {"measurement": "symptom evaluation: symptoms of heartburn and gastric acid reflux while taking the drug", "setting": "[1]", "value": "had not experienced symptoms of heartburn and gastric acid reflux"}]}]}
